From patent US9938281B2 (Merck Sharp & Dohme Corp., priority 2012, dated 2018)

What was measured:
PI3K-delta = target: T1, PI3K-delta (Homo sapiens, UniProt O00329); assay: HTRF PI3K biochemical assay, delta isoform; conditions: form screened (neutral or TFA salt) given, read-out: PI3Kdelta IC50
T1 construct: purchased Upstate; Millipore 14-604

PI3K-alpha = target: T2, PI3K-alpha (Homo sapiens, UniProt P42336); assay: HTRF PI3K biochemical assay, alpha isoform; conditions: ratio PI3K-alpha IC50 value / PI3K-delta IC50 value
T2 construct: purchased Upstate; Millipore 14-602
T2 sequence (P42336 whole entry, canonical isoform): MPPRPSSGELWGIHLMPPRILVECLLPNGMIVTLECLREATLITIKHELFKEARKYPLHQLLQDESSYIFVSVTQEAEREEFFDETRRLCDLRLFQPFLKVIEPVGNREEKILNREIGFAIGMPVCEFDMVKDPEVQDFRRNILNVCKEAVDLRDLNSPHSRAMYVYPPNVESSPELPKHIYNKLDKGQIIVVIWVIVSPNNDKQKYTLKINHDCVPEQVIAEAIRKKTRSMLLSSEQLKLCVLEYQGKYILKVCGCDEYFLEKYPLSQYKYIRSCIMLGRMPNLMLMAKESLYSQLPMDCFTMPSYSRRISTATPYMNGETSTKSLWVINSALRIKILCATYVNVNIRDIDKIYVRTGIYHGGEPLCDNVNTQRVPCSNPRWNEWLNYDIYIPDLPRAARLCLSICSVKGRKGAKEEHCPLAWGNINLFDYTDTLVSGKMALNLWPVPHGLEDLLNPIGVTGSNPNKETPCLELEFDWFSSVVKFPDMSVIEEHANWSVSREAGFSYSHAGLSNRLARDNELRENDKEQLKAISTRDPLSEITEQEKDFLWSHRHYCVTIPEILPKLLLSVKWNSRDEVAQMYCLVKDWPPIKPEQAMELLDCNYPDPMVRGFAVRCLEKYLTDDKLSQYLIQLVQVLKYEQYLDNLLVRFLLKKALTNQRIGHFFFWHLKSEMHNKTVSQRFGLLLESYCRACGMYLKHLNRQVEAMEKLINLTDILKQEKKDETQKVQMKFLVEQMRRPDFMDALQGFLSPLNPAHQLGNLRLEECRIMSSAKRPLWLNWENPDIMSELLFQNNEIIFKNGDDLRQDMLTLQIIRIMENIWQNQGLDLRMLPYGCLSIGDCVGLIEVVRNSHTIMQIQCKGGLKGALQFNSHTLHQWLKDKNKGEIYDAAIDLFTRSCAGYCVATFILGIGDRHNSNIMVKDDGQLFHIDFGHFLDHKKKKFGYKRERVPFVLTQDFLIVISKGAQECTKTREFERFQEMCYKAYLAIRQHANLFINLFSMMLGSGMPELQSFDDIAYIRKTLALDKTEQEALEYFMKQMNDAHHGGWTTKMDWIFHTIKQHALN
T2 sequence (P27986 whole entry partner, canonical isoform): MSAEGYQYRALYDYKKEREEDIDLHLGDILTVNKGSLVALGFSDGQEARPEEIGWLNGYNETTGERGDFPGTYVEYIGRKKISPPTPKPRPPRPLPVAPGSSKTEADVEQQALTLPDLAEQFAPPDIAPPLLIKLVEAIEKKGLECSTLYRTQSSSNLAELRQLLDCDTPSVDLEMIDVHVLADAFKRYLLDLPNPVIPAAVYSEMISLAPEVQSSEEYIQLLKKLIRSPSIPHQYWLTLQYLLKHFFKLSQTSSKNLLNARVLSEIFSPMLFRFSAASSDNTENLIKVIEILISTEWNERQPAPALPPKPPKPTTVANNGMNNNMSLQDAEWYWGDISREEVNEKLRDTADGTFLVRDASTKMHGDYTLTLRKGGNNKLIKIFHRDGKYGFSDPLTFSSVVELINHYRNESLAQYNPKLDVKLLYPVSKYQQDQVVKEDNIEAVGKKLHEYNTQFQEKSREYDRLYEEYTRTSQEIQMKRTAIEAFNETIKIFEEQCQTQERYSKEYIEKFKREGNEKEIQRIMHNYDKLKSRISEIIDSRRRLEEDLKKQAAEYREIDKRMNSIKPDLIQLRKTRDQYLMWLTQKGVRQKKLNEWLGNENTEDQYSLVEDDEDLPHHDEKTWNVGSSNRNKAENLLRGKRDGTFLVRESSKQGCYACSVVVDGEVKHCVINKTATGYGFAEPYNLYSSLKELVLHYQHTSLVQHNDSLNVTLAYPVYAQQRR

T1 sequence (O00329 whole entry, canonical isoform): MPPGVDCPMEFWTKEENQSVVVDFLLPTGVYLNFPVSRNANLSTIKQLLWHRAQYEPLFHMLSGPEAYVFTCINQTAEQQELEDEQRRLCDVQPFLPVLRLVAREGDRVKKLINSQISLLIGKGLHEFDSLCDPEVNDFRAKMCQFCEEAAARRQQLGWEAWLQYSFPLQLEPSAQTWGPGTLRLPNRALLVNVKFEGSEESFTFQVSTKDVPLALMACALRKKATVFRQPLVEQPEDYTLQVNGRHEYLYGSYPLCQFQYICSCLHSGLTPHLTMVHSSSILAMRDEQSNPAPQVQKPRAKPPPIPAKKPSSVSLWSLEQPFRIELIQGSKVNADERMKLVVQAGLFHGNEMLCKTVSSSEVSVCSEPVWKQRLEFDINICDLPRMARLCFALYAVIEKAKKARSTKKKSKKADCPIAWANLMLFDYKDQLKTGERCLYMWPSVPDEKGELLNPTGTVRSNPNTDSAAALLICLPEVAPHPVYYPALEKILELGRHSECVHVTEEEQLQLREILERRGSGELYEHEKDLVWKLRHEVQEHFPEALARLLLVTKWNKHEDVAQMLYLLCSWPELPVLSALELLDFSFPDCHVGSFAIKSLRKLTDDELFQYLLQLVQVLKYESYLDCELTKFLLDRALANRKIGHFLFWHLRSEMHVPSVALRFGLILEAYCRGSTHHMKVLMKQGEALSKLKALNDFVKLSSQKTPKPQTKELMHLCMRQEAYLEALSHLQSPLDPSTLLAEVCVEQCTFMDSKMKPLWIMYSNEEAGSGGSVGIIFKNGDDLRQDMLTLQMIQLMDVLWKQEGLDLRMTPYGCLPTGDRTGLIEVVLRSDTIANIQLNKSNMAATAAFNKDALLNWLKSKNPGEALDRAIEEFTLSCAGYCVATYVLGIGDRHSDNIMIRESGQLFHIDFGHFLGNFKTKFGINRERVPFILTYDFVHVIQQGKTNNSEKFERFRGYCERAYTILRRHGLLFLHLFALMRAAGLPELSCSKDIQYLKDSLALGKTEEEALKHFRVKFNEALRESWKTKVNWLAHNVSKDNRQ
T1 sequence (P27986 whole entry partner, canonical isoform): as the sequence (P27986 whole entry partner, canonical isoform) above

| SMILES | IC50 (PI3K-delta) | Selectivity versus PI3Kalpha (PI3K-alpha) |
| --- | --- | --- |
| CCC(=O)N1CC[C@H](Nc2ncnc3c2nc(-c2cnc(OC)c(C)c2)n3C)C1 [Compound 2-12, (S)-1-(3-((8-(6-methoxy-5-methylpyridin-3-yl)-9-methyl-9H-purin-6-yl)amino)pyrrolidin-1-yl)propan-1-one] | 3.5 nM | >10 |
| CCn1c(-c2cnc(C)nc2)nc2c(NC3CN(C(C)C)CC34CC4)ncnc21 (centres unmarked) [Compound 10-3, (R AND S)-9-ethyl-N-[5-(1-methylethyl)-5-azaspiro[2.4]hept-7-yl]-8-(2-methylpyrimidin-5-yl)-9H-purin-6-amine] | 96 nM | >10 |
| CCn1c(-c2cnc(C)nc2)nc2c(N[C@H]3CCN(C(=O)NC4CCCCC4)C3)ncnc21 [Compound 12-16, (3S)-N-cyclohexyl-3-{[9-ethyl-8-(2-methylpyrimidin-5-yl)-9H-purin-6-yl]amino}pyrrolidine-1-carboxamide] | 16 nM | >10 |
| CCn1c(-c2cnc(C)nc2)nc2c(N[C@H]3CCN(C(=O)C4(O)CC4)C3)ncnc21 [Compound 2-66, 1-{[(3S)-3-{[9-ethyl-8-(2-methylpyrimidin-5-yl)-9H-purin-6-yl]amino}pyrrolidin-1-yl]carbonyl}cyclopropanol] | 10 nM | >10 |
| CCn1c(-c2cnc(C)nc2)nc2c(NC3CN(C(=O)C4CC4)CC3O)ncnc21 (single isomer, unassigned) [Compound 2-97, 1-(cyclopropylcarbonyl)-4-{(3R,4R) or (3S,4S)-[9-ethyl-8-(2-methylpyrimidin-5-yl)-9H-purin-6-yl]amino}pyrrolidin-3-ol] | 2.9 nM | >10 |
| CCn1c(-c2cnc(C)nc2)nc2c(N[C@H]3CCN(C(=O)[C@@H]4CCCN4C)C3)ncnc21 [Compound 2-43, 9-ethyl-N-[(3S)-1-(1-methyl-L-prolyl)pyrrolidin-3-yl]-8-(2-methylpyrimidin-5-yl)-9H-purin-6-amine] | 16 nM | >10 |
| CCn1c(C(=O)NCC(F)(F)F)nc2c(N[C@H]3CCN(C(=O)C4CC4)C3)ncnc21 [Compound 6-3, 6-{[(3S)-1-(cyclopropylcarbonyl)pyrrolidin-3-yl]amino}-9-ethyl-N-(2,2,2-trifluoroethyl)-9H-purine-8-carboxamide] | 6.7 nM | >10 |
| CCn1c(C(F)F)nc2c(N[C@H]3CCN(C(=O)c4ccn(C)n4)C3)ncnc21 [Compound 7-12, 8-(difluoromethyl)-9-ethyl-N-{(3S)-1-[(1-methyl-1H-pyrazol-3-yl)carbonyl]pyrrolidin-3-yl}-9H-purin-6-amine] | 39 nM | >10 |
| CCn1c(-c2cnc(C)nc2)nc2c(N[C@H]3CCN(c4nccc5ccccc45)C3)ncnc21 [Compound 4-9, 9-ethyl-N-[(3S)-1-isoquinolin-1-ylpyrrolidin-3-yl]-8-(2-methylpyrimidin-5-yl)-9H-purin-6-amine] | 6.6 nM | >10 |
| CCn1c(C(F)F)nc2c(N[C@H]3CCN(c4ccccn4)C3)ncnc21 [Compound 7-26, 8-(difluoromethyl)-9-ethyl-N-[(3S)-1-pyridin-2-ylpyrrolidin-3-yl]-9H-purin-6-amine] | 28 nM | >10 |
| CCn1c(-c2cnc(C)nc2)nc2c(N[C@H]3CN[C@@H](C(=O)N(C)C4CC4)C3)ncnc21 [Compound 15-13, (4R)-N-cyclopropyl-4-{[9-ethyl-8-(2-methylpyrimidin-5-yl)-9H-purin-6-yl]amino}-N-methyl-D-prolinamide] | 29 nM | >10 |
| CCn1c(-c2cnc(C)nc2)nc2c(N[C@H]3CCN(c4cccc(NC)n4)C3)ncnc21 [Compound 4-8, 9-ethyl-N-{(3S)-1-[6-(methylamino)pyridin-2-yl]pyrrolidin-3-yl}-8-(2-methylpyrimidin-5-yl)-9H-purin-6-amine] | 2.3 nM | >10 |
| CCn1c(C(=O)NCC2CC2)nc2c(N[C@H]3CCN(C(=O)C4CC4)C3)ncnc21 [Compound 6-1, 6-{[(3S)-1-(cyclopropylcarbonyl)pyrrolidin-3-yl]amino}-N-(cyclopropylmethyl)-9-ethyl-9H-purine-8-carboxamide] | 20 nM | >10 |
| CCC(=O)N1CCC[C@H](Nc2ncnc3c2nc(-c2cnc(C)nc2)n3CC)C1 [Compound 2-27, 9-ethyl-8-(2-methylpyrimidin-5-yl)-N-[(3S)-1-propanoylpiperidin-3-yl]-9H-purin-6-amine] | 28 nM | >10 |

These reach a lower IC50 (PI3K-delta). Values come first.

| IC50 (PI3K-delta) | Selectivity versus PI3Kalpha (PI3K-alpha) | SMILES |
| --- | --- | --- |
| < 1 nM | >10 | CCn1c(-c2cnc(OC)c(C)c2)nc2c(N[C@H]3CCN(C(=O)c4cncn4C)C3)ncnc21 [Compound 3A-6, 9-ethyl-8-(6-methoxy-5-methylpyridin-3-yl)-N-{(3S)-1-[(1-methyl-1H-imidazol-5-yl)carbonyl]pyrrolidin-3-yl}-9H-purin-6-amine] |
| 1.6 nM | >10 | CCn1c(-c2cnc(C)nc2)nc2c(N[C@H]3CCN(C(=O)N4CCC4C)C3)ncnc21 (mixture of isomers) [Compound 12-3, 9-ethyl-N-{(3S)-1-[((S and R)-2-methylazetidin-1-yl)carbonyl]pyrrolidin-3-yl}-8-(2-methylpyrimidin-5-yl)-9H-purin-6-amine] |
| < 1 nM | >10 | CCn1c(-c2cnc(OC)c(Cl)c2)nc2c(N[C@H]3CCN(C(=O)C4CC4)C3)ncnc21 [Compound 3-25, 8-(5-chloro-6-methoxypyridin-3-yl)-N-[(3S)-1-(cyclopropylcarbonyl)pyrrolidin-3-yl]-9-ethyl-9H-purin-6-amine] |
| < 1 nM | >10 | CCn1c(-c2ccc(OC)nc2)nc2c(N[C@H]3CCN(C(=O)C4CC(F)(F)C4)C3)ncnc21 [Compound 3A-8, N-{(3S)-1-[(3,3-difluorocyclobutyl)carbonyl]pyrrolidin-3-yl}-9-ethyl-8-(6-methoxypyridin-3-yl)-9H-purin-6-amine] |
| 1.2 nM | >10 | CCn1c(-c2cnn(CC(F)(F)F)c2)nc2c(N[C@H]3CCN(C(=O)C4CC4)C3)ncnc21 [Compound 3-36, N-[(3S)-1-(cyclopropylcarbonyl)pyrrolidin-3-yl]-9-ethyl-8-[1-(2,2,2-trifluoroethyl)-1H-pyrazol-4-yl]-9H-purin-6-amine] |
| < 1 nM | >10 | CCn1c(-c2ccc(C(F)(F)F)nc2)nc2c(N[C@H]3CCN(C(=O)C4CCOC4)C3)ncnc21 (single isomer, unassigned) [Compound 2-101, 9-ethyl-N-{(3S)-1-[(3R or 3S)-tetrahydrofuran-3-ylcarbonyl]pyrrolidin-3-yl}-8-[6-(trifluoromethyl)pyridin-3-yl]-9H-purin-6-amine] |
| < 1 nM | >10 | CCn1c(-c2cnc3c(cnn3C)c2)nc2c(N[C@H]3CCN(C(=O)C4CC4)C3)ncnc21 [Compound 3-35, N-[(3S)-1-(cyclopropylcarbonyl)pyrrolidin-3-yl]-9-ethyl-8-(1-methyl-1H-pyrazolo[3,4-b]pyridin-5-yl)-9H-purin-6-amine] |
| < 1 nM | >10 | CCn1c(-c2cnc(C)nc2)nc2c(N[C@H]3CCN(C(=O)C4CC4)C3)ncnc21 [Compound 2-21, (S)-cyclopropyl(3-((9-ethyl-8-(2-methylpyrimidin-5-yl)-9H-purin-6-yl)amino)pyrrolidin-1-yl)methanone] |
